{
  "source": "patent US7425631B2",
  "about": "(Amgen Inc., priority 2003, dated 2008)",
  "key": {"[1]": {"molecular_target": "T1, human bradykinin B1 receptor (Homo sapiens, UniProt P46663)", "T1 construct": "expressed in transfected cells; host or cells: CHO-d-AQN cells (membranes prepared in-house)", "T1 sequence (P46663 1-353)": "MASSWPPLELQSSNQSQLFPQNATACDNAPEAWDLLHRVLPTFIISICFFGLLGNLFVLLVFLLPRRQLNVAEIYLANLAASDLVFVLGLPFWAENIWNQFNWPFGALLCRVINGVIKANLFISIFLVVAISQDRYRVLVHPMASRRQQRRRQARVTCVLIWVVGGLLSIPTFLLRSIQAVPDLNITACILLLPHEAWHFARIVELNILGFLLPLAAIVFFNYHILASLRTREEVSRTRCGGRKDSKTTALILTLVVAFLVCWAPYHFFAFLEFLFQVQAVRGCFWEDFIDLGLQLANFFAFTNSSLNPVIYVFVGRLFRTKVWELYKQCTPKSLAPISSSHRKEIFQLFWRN", "test": "Radioligand binding assay for human B1 bradykinin receptor ([3H]des-arg10 kallidin)", "conditions": "membranes of CHO cells expressing human B1 receptor; read-out: binding Ki's to the hB1 receptor", "protocol": "Preparation of membranes expressing human B1 and human B2 bradykinin receptor. Membranes were prepared from CHO-d^−AQN cells stably transfected with human bradykinin B1 receptor cDNA. For large-scale production of membranes, cells were grown in 100 L suspension culture to 1.0E8 cells/mL then harvested using the Viafuge at continuous centrifugation of 1000 g. For pilot studies, cells were grown in 2 L spinner culture and harvested by centrifugation (1900 g, 10 min, 4° C.). […] The resulting cell lysate was centrifuged (1900 g, 10 min, 4° C.), and the crude particulate fraction isolated by centrifugation (142,000 g, 1 h, 4° C.) of the low-speed supernatant. The resulting pellet was resuspended in ⅓ the original lysis buffer volume, homogenized, and recentrifuged as above. The membrane pellet was resuspended by homogenization in storage buffer (25 mM HEPES, pH 7.4, 3 mM MgCl2, 10% (w/v) sucrose and Complete Protease Inhibitor tablets (EDTA-free)). Single-use aliquots were made and flash-frozen in liquid N2 prior to storage at −80° C.\nRadioligand Binding Assay for human B1 and human B2 bradykinin receptor. […] Membranes (50 μL) were added last. […] Nonspecific binding was defined with 2 μM des-Arg^10Leu^9 kallidin. […] The assay mixture was incubated with shaking for 1 hr at RT and then filtered through GF/C plates presoaked in 0.5% polyethyleneimine (Unifilter; Perkin Elmer Life Sciences) using a Filtermate 96-well harvester (Perkin Elmer Life Sciences). […] The plates were sealed and activity read on Topcount (Perkin Elmer Life Sciences) using a count time of 3 min per channel.\nData analysis. Data was analyzed in XLFit with the four-parameter logistic y=A+((B-A)/(1+((C/x)^D))) and fit with the Levenburg-Marquardt algorithm. Raw cpm were converted to percent of control values prior to analysis (POC=((compound cpm−nonspecfic cpm)/(no-compound cpm−nonspecific cpm)*100)). Ki values were determined from the IC50 using the Cheng-Prusoff equation and Kd values determined by direct saturation binding of the radioligands."}, "human B1 receptor": {"molecular_target": "T2, human B1 receptor (Homo sapiens, UniProt P46663)", "T2 construct": "expressed in transfected cells", "T2 sequence (P46663 1-353)": "T1 sequence (P46663 1-353)", "test": "In vitro assay of human B1 receptor function using calcium flux (aequorin luminescence)", "assay_type": "cell-based", "conditions": "CHO D-/hB1/Aequorin cells, agonist 20 nM des-Arg10-Kallidin (EC80); read-out: binding IC50's to hB1 receptor function"}},
  "data": [
    {"smiles": "O=C(C[C@@H](NS(=O)(=O)c1cc(Cl)cc(Cl)c1)c1ccccc1)NC1CCOc2cc(CN3CCCCC3)ccc21", "note": "(stereo in doubt) [Example 1h, 3-(3,5-Dichloro-benzenesulfonylamino)-3-phenyl-N-(7-piperidin-1-ylmethyl-chroman-4-yl)-propionamide]", "values": [
      {"measurement": "Ki", "setting": "[1]", "result": "< 100", "unit": "nM"}
    ]},
    {"smiles": "O=C(C[C@@H](NS(=O)(=O)c1ccc2ccccc2c1)c1ccccc1)NC1CCOc2cc(CN3CCOCC3)ccc21", "note": "(stereo in doubt) [Example 3j, N-(7-Morpholin-4-ylmethyl-chroman-4-yl)-3-(naphthalen-2-yl-sulfonylamino)-3-phenyl-propionamide]", "values": [
      {"measurement": "Ki", "setting": "[1]", "result": "< 100", "unit": "nM"}
    ]},
    {"smiles": "CN1c2cc(CN3CCCCC3)ccc2C(NC(=O)C[C@@H](NS(=O)(=O)c2ccc3ccccc3c2)c2ccccc2)CS1(=O)=O", "note": "(stereo in doubt) [Example 13, 3-(Naphthalen-2-yl-sulfonylamino)-N-(1-methyl-2,2-dioxo-7-piperidin-1-ylmethyl-1,2,3,4-tetrahydro-2λ^6-benzo[c][1,2]thiazin-4-yl)-3-phenyl-propionamide]", "values": [
      {"measurement": "Ki", "setting": "[1]", "result": "< 100", "unit": "nM"}
    ]},
    {"smiles": "CN1CCN(Cc2ccc3c(c2)OCCC3NC(=O)C[C@@H](NS(=O)(=O)c2ccc3ccccc3c2)c2ccccc2)CC1", "note": "(stereo partly drawn) [Example 1a, N-[7-(4-Methyl-piperazin-1-ylmethyl)-chroman-4-yl]-3-(naphthyl-2-ylsulfonylamino)-3-phenyl-propionamide]", "values": [
      {"measurement": "Ki", "setting": "[1]", "result": "< 100", "unit": "nM"}
    ]},
    {"smiles": "O=C(C[C@@H](NS(=O)(=O)c1ccc2ccccc2c1)c1ccccc1)NC1CCOc2cc(CN3CCCC3)ccc21", "note": "(stereo partly drawn) [Example 1d, 3-(Naphthalen-2-ylsulfonylamino)-3-phenyl-N-(7-pyrrolidin-1-ylmethyl-chroman-4-yl)-propionamide]", "values": [
      {"measurement": "Ki", "setting": "[1]", "result": "< 100", "unit": "nM"}
    ]},
    {"smiles": "O=C(C[C@@H](NS(=O)(=O)c1ccc(Cl)c(Cl)c1)c1ccccc1)NC1CCOc2cc(CN3CCCCC3)ccc21", "note": "(stereo partly drawn) [Example 1f, 3-(3,4-Dichloro-benzenesulfonylamino)-3-phenyl-N-(7-piperidin-1-ylmethyl-chroman-4-yl)-propionamide]", "values": [
      {"measurement": "Ki", "setting": "[1]", "result": "< 100", "unit": "nM"},
      {"measurement": "IC50", "setting": "human B1 receptor", "result": "< 10", "unit": "nM"}
    ]},
    {"smiles": "CC(C)NCc1ccc2c(c1)OCCC2NC(=O)C[C@@H](NS(=O)(=O)c1ccc2ccccc2c1)c1ccccc1", "note": "(stereo partly drawn) [Example 3, N-[7-(Isopropylamino-methyl)-chroman-4-yl]-3-(naphthalen-2-ylsulfonylamino)-3-phenyl-propionamide]", "values": [
      {"measurement": "Ki", "setting": "[1]", "result": "< 100", "unit": "nM"}
    ]},
    {"smiles": "CC(C)N(C)Cc1ccc2c(c1)OCCC2NC(=O)C[C@@H](NS(=O)(=O)c1ccc2ccccc2c1)c1ccccc1", "note": "(stereo partly drawn) [Example 3b]", "values": [
      {"measurement": "Ki", "setting": "[1]", "result": "< 100", "unit": "nM"}
    ]},
    {"smiles": "CCN(Cc1ccc2c(c1)OCCC2NC(=O)C[C@@H](NS(=O)(=O)c1ccc2ccccc2c1)c1ccccc1)C(C)(C)C", "note": "(stereo partly drawn) [Example 3f, N-{7-[(tert-Butyl-ethyl-amino)-methyl]-chroman-4-yl}-3-(naphthalen-2-yl-sulfonylamino)-3-phenyl-propionamide]", "values": [
      {"measurement": "Ki", "setting": "[1]", "result": "< 100", "unit": "nM"}
    ]},
    {"smiles": "C[C@@H]1CC[C@@H](C)N1Cc1ccc2c(c1)OCCC2NC(=O)C[C@@H](NS(=O)(=O)c1ccc2ccccc2c1)c1ccccc1", "note": "(stereo partly drawn) [Example 3h, N-[7-(2R, 5R-Dimethyl-pyrrolidin-1-ylmethyl)-chroman-4-yl]-3-(naphthalen-2-yl-sulfonylamino)-3-phenyl-propionamide]", "values": [
      {"measurement": "Ki", "setting": "[1]", "result": "< 100", "unit": "nM"}
    ]},
    {"smiles": "CCN(CC)Cc1ccc2c(c1)OCCC2NC(=O)C[C@@H](NS(=O)(=O)c1ccc2ccccc2c1)c1ccccc1", "note": "(stereo partly drawn) [Example 3l, N-(7-Diethylaminomethyl-chroman-4-yl)-3-(naphthalen-2-yl-sulfonylamino)-3-phenyl-propionamide]", "values": [
      {"measurement": "Ki", "setting": "[1]", "result": "< 100", "unit": "nM"}
    ]},
    {"smiles": "O=C(C[C@@H](NS(=O)(=O)c1ccc2ccccc2c1)c1ccccc1)NC1CCc2c(CN3CCCCC3)cccc21", "note": "(stereo partly drawn) [Example 4a, 3-(Naphthalen-2-yl-sulfonylamino)-3-phenyl-N-(4-piperidin-1-ylmethyl-indan-1-yl)-propionamide]", "values": [
      {"measurement": "Ki", "setting": "[1]", "result": "< 100", "unit": "nM"}
    ]},
    {"smiles": "O=C(C[C@@H](NS(=O)(=O)c1ccc2ccccc2c1)c1ccccc1)NC1CCc2cc(CN3CCCCC3)ccc21", "note": "(stereo partly drawn) [Example 5a, 3-(Naphthalen-2-yl-sulfonylamino)-3-phenyl-N-(5-piperidin-1-ylmethyl-indan-1-yl)-propionamide]", "values": [
      {"measurement": "Ki", "setting": "[1]", "result": "< 100", "unit": "nM"},
      {"measurement": "IC50", "setting": "human B1 receptor", "result": "< 10", "unit": "nM"}
    ]}
  ]
}
